The record followed here is patent US11098010B2 (priority 2017, dated 2021).

pEC50: −log10 of the molar value. Where a name gives a salt, the structure may show the parent alone. Read-outs that look alike come from different tables or passages of the source.

This test relates to HBV rcDNA in HepDE19 cells. Description: HepDE19 assay with bDNA quantitation of HBV rcDNA. The class given is cell-based, hepatitis B virus (HBV). As to conditions: for pEC50: HepDE19 cells, inhibition of rcDNA formation, 7 day incubation, top concentration 25 μM, read-out: DE-19 bDNA EC50; for EC50: read-out: DE-19 bDNA EC50 (μM), HepDE19 cells, inhibition of rcDNA formation, 7 day incubation, top concentration 25 μM.

Where [1] appears, read: Hepatitis B virus, HepDE19, 168 h.

With `O=C(OCc1ccccn1)O[C@H]1CCc2c(C(=O)Nc3ccc(F)c(Cl)c3)ccc(F)c21` [Compound 90, (S)-4-((3-Chloro-4-fluorophenyl)carbamoyl)-7-fluoro-2,3-dihydro-1H-inden-1-yl (pyridin-2-ylmethyl) carbonate], the pEC50 (usually the EC50 on a negative log10 scale, so that one unit is a factor of ten) under setting [1] was 5.72.
On the same count and under the same terms, with `O=C(N[C@H]1CCc2c(C(=O)Nc3ccc(F)c(Cl)c3)ccc(F)c21)OCc1cncs1` [Compound 91, O-Thiazol-5-ylmethyl, N—(S)-(4-((3-chloro-4-fluorophenyl)carbamoyl)-7-fluoro-2,3-dihydro-1H-inden-1-yl) carbamate] the figure was 7.15; with `O=C(N[C@H]1CCc2c(C(=O)Nc3ccc(F)c(Cl)c3)ccc(F)c21)OCc1nccs1` [Compound 92, O-Thiazol-2-ylmethyl, N—(S)-(4-((3-chloro-4-fluorophenyl)carbamoyl)-7-fluoro-2,3-dihydro-1H-inden-1-yl) carbamate], 6.74.
Take `O=C(N[C@H]1CCc2c(C(=O)Nc3ccc(F)c(Cl)c3)ccc(F)c21)OCc1cocn1` [Compound 93, O-Oxazol-4-ylmethyl, N—(S)-(4-((3-chloro-4-fluorophenyl)carbamoyl)-7-fluoro-2,3-dihydro-1H-inden-1-yl) carbamate]: the pEC50 under setting [1] was 6.31.
`O=C(N[C@H]1CCc2c(C(=O)Nc3ccc(F)c(Cl)c3)ccc(F)c21)OCc1ncco1` [Compound 94, O-Oxazol-2-ylmethyl, N—(S)-(4-((3-chloro-4-fluorophenyl)carbamoyl)-7-fluoro-2,3-dihydro-1H-inden-1-yl) carbamate]: the pEC50 under setting [1] was 7.15.
Still for that read-out and setting: with `O=C(N[C@H]1CCc2c(C(=O)Nc3ccc(F)c(Cl)c3)ccc(F)c21)OCc1cnco1` [Compound 95, O-Oxazol-5-ylmethyl, N—(S)-(4-((3-chloro-4-fluorophenyl)carbamoyl)-7-fluoro-2,3-dihydro-1H-inden-1-yl) carbamate] the figure was 7.22.
Regarding `O=C(N[C@H]1CCc2c(C(=O)Nc3ccc(F)c(Cl)c3)ccc(F)c21)OCCn1ccnc1` [Compound 96, O-2-(1H-Imidazol-1-yl)ethyl, N—(S)-(4-((3-chloro-4-fluorophenyl)carbamoyl)-7-fluoro-2,3-dihydro-1H-inden-1-yl) carbamate Hydrochloride], the EC50 under setting [1] was found to be 0.3 µM.
Same read-out and setting: the result for `O=C(Nc1ccc(F)c(Cl)c1)c1ccc(F)c2c1CC[C@@H]2Nc1ccccn1` [Compound 97, (S)—N-(3-Chloro-4-fluorophenyl)-7-fluoro-1-(pyridin-2-ylamino)-2,3-dihydro-1H-indene-4-carboxamide Hydrochloride] reads 0.22 µM.
Turning to `Cn1ccc(C(=O)N[C@H]2CCc3c(C(=O)Nc4ccc(F)c(Cl)c4)ccc(F)c32)n1` [Compound 98, (S)—N-(4-((3-Chloro-4-fluorophenyl)carbamoyl)-7-fluoro-2,3-dihydro-1H-inden-1-yl)-1-methyl-1H-pyrazole-3-carboxamide], under setting [1], the pEC50 is 6.09.
Take `O=C(N[C@H]1CCc2c(C(=O)Nc3ccc(F)c(Cl)c3)ccc(F)c21)OCCOc1ccccc1` [Compound 99, O-2-Phenoxyethyl, N—(S)-(4-((3-chloro-4-fluorophenyl)carbamoyl)-7-fluoro-2,3-dihydro-1H-inden-1-yl) carbamate]: the EC50 under setting [1] came to 1.22 µM.
Turning to `Cn1nccc1C(=O)N[C@H]1CCc2c(C(=O)Nc3ccc(F)c(Cl)c3)ccc(F)c21` [Compound 100, (S)—N-(4-((3-Chloro-4-fluorophenyl)carbamoyl)-7-fluoro-2,3-dihydro-1H-inden-1-yl)-1-methyl-1H-pyrazole-5-carboxamide], the pEC50 under setting [1] is 6.13.
Same read-out and setting: with `Cn1ccc(S(=O)(=O)N[C@H]2CCc3c(C(=O)Nc4ccc(F)c(Cl)c4)ccc(F)c32)n1` [Compound 101, (S)—N-(3-Chloro-4-fluorophenyl)-7-fluoro-1-((1-methyl-1H-pyrazole)-3-sulfonamido)-2,3-dihydro-1H-indene-4-carboxamide] the figure was 6.14.
On the same count and under the same terms, the result for `Cn1cnc(COC(=O)N[C@H]2CCc3c(C(=O)Nc4ccc(F)c(Cl)c4)ccc(F)c32)n1` [Compound 102, O-(1-Methyl-1H-1,2,4-triazol-3-yl)methyl, N—(S)-(4-((3-chloro-4-fluorophenyl)carbamoyl)-7-fluoro-2,3-dihydro-1H-inden-1-yl) carbamate] reads 7.15.
Still for that read-out and setting: with `Cn1nccc1COC(=O)N[C@H]1CCc2c(C(=O)Nc3ccc(F)c(Cl)c3)ccc(F)c21` [Compound 103, O-(1-Methyl-1H-pyrazol-5-yl)methyl, N—(S)-(4-((3-chloro-4-fluorophenyl)carbamoyl)-7-fluoro-2,3-dihydro-1H-inden-1-yl) carbamate] the figure was 7.00.
`NC(=O)c1ccnc(N[C@H]2CCc3c(C(=O)Nc4ccc(F)c(Cl)c4)ccc(F)c32)n1` [Compound 104, (S)-2-((4-((3-Chloro-4-fluorophenyl)carbamoyl)-7-fluoro-2,3-dihydro-1H-inden-1-yl)amino)pyrimidine-4-carboxamide]: the EC50 under setting [1] came out at 0.16 µM.
For the molecule `Cc1ncsc1CCOC(=O)N[C@H]1CCc2c(C(=O)Nc3ccc(F)c(Cl)c3)ccc(F)c21` [Compound 105, O-2-(4-Methylthiazol-5-yl)ethyl, N—(S)-(4-((3-chloro-4-fluorophenyl)carbamoyl)-7-fluoro-2,3-dihydro-1H-inden-1-yl) carbamate], the EC50 under setting [1] was found to be 0.19 µM.
As to `CC(C)n1nccc1COC(=O)N[C@H]1CCc2c(C(=O)Nc3ccc(F)c(Cl)c3)ccc(F)c21` [Compound 106, O-(1-Isopropyl-1H-pyrazol-5-yl)methyl, N—(S)-(4-((3-chloro-4-fluorophenyl)carbamoyl)-7-fluoro-2,3-dihydro-1H-inden-1-yl) carbamate], the negative logarithm of the EC50 (pEC50) was 6.77.
Take `COc1ccc(COC(=O)N[C@H]2CCc3c(C(=O)Nc4ccc(F)c(Cl)c4)ccc(F)c32)nc1` [Compound 107, O-(5-Methoxypyridin-2-yl)methyl, N—(S)-(4-((3-chloro-4-fluorophenyl)carbamoyl)-7-fluoro-2,3-dihydro-1H-inden-1-yl) carbamate Hydrochloride]: the EC50 under setting [1] is 1.2 µM.
Regarding `O=C(N[C@H]1CCc2c(C(=O)Nc3ccc(F)c(Cl)c3)ccc(F)c21)OC[C@@H]1CCCN1CC(F)(F)F` [Compound 108, O-[(2S)-1-(2,2,2-Trifluoroethyl)pyrrolidin-2-yl]methyl, N-[(1S)-4-[(3-chloro-4-fluorophenyl)carbamoyl]-7-fluoro-2,3-dihydro-1H-inden-1-yl]carbamate Hydrochloride], the EC50 under setting [1] came to 0.72 µM.
Same read-out and setting: the result for `O=C(N[C@H]1CCc2c(C(=O)Nc3ccc(F)c(Cl)c3)ccc(F)c21)OCc1ccc(F)cn1` [Compound 109, O-(5-Fluoropyridin-2-yl)methyl, N—(S)-(4-((3-chloro-4-fluorophenyl)carbamoyl)-7-fluoro-2,3-dihydro-1H-inden-1-yl) carbamate] reads 0.27 µM.
For `O=C(N[C@H]1CCc2c(C(=O)Nc3ccc(F)c(Cl)c3)ccc(F)c21)OCCc1cn[nH]c1` [Compound 110, O-2-(1H-Pyrazol-4-yl)ethyl, N—(S)-(4-((3-chloro-4-fluorophenyl)carbamoyl)-7-fluoro-2,3-dihydro-1H-inden-1-yl) carbamate], the EC50 under setting [1] was determined as 0.2 µM.
In the case of `COCCOC(=O)N[C@H]1CCc2c(C(=O)Nc3ccc(F)c(Cl)c3)ccc(F)c21` [Compound 111, O-2-Methoxyethyl, N—(S)-(4-((3-chloro-4-fluorophenyl)carbamoyl)-7-fluoro-2,3-dihydro-1H-inden-1-yl) carbamate], the pEC50 under setting [1] was 6.82.
For the molecule `O=C(N[C@H]1CCc2c(C(=O)Nc3ccc(F)c(Cl)c3)ccc(F)c21)OC[C@H]1CCCO1` [Compound 112, O—((R)-Tetrahydrofuran-2-yl)methyl, N—((S)-4-((3-chloro-4-fluorophenyl)carbamoyl)-7-fluoro-2,3-dihydro-1H-inden-1-yl) carbamate], the EC50 under setting [1] is 0.21 µM.
On the same count and under the same terms, the result for `O=C(N[C@H]1CCc2c(C(=O)Nc3ccc(F)c(Cl)c3)ccc(F)c21)OC1CCOCC1` [Compound 113, O-Tetrahydro-2H-pyran-4-yl, N—(S)-(4-((3-chloro-4-fluorophenyl)carbamoyl)-7-fluoro-2,3-dihydro-1H-inden-1-yl) carbamate] reads 0.31 µM; that for `COCCCOC(=O)N[C@H]1CCc2c(C(=O)Nc3ccc(F)c(Cl)c3)ccc(F)c21` [Compound 114, O-3-Methoxypropyl, N—(S)-(4-((3-chloro-4-fluorophenyl)carbamoyl)-7-fluoro-2,3-dihydro-1H-inden-1-yl) carbamate], 0.47 µM.
As to `O=C(N[C@H]1CCc2c(C(=O)Nc3ccc(F)c(Cl)c3)ccc(F)c21)c1ccccn1` [Compound 115, (S)—N-(4-((3-Chloro-4-fluorophenyl)carbamoyl)-7-fluoro-2,3-dihydro-1H-inden-1-yl)picolinamide], the pEC50 under setting [1] was 5.66.
Same read-out and setting: with `O=C(N[C@H]1CCc2c(C(=O)Nc3ccc(F)c(Cl)c3)ccc(F)c21)c1cncs1` [Compound 116, (S)—N-(4-((3-Chloro-4-fluorophenyl)carbamoyl)-7-fluoro-2,3-dihydro-1H-inden-1-yl)thiazole-5-carboxamide] the figure was 5.77; with `CS(=O)(=O)N[C@H]1CCc2c(C(=O)Nc3ccc(F)c(Cl)c3)ccc(F)c21` [Compound 117, (S)—N-(3-chloro-4-fluorophenyl)-7-fluoro-1-(methylsulfonamido)-2,3-dihydro-1H-indene-4-carboxamide], 6.28.
Consider `O=C(CN1CCOCC1)N[C@H]1CCc2c(C(=O)Nc3ccc(F)c(Cl)c3)ccc(F)c21` [Compound 118, (S)—N-(3-Chloro-4-fluorophenyl)-7-fluoro-1-(2-morpholinoacetamido)-2,3-dihydro-1H-indene-4-carboxamide], for which, under setting [1], the negative logarithm of the EC50 (pEC50) was 5.66.
Still for that read-out and setting: with `O=C(N[C@H]1CCc2c(C(=O)Nc3ccc(F)c(Cl)c3)ccc(F)c21)c1ccncc1` [Compound 120, (S)—N-(4-((3-Chloro-4-fluorophenyl)carbamoyl)-7-fluoro-2,3-dihydro-1H-inden-1-yl)isonicotinamide] the figure was 6.62.
